According to patent US20120289577A1, “COMPOSITION FOR TREATING OR PREVENTING HEARING LOSS COMPRISING NAPHTHOQUINONE-BASED COMPOUNDS” (KT&G LIFE SCIENCES CORPORATION, priority 2009, published 2012):

Legend:
HSP60 [1] = experiment: Release amounts of HSP60 in HEI-OC1 cells by ELISA; type: cell-based
Description: (§1) It is generally known that HSP60 in mitochondria is released outside of the cells to bind to TLR2 or TLR4, thereby inducing strong inflammation. Accordingly, the release amounts of HSP60 in mice and HEI-OC1 cells were measured by the ELISA method.

HSP60 [2] = experiment: Location variation of HSP60 by cell staining; type: cell-based
Excerpt: Also, location variation of HSP60 was identified by cell staining.

HMGB1 [3] = experiment: Extracellular release of HMGB1 by ELISA; type: cell-based
Excerpt: HMGB1 is, together with HSP60, known as an important mediator for the activation of TLRs and the resulting inflammation. Accordingly, the extracellular release of HMGB1 was identified by the ELISA method.

HSP60 [4] = experiment: Release amounts of HSP60 in mice by ELISA; type: in vivo
Description: as §1

[5] = test system: outer and inner hair cells of Corti's organ explants; experiment: Explants of the Corti's organ, shape and arrangement of hair cells; type: cell-based
[6] = test system: TNF-α, IL-6, HSP60, TLR2 and TLR4 expression in HEI-OC1 cells; experiment: Expression of inflammation mediators by the PCR method; type: cell-based
6-week-old C57BL/6 mice = type: in vivo; details: β-lapachone (10, 20 and 40 mg/kg/day) and cisplatin for 4 days, p<0.05
Description: 6-week-old C57BL/6 mice were bred in an axenic (germfree) animal facility maintaining constant temperature (22 to 26° C.) and humidity (55 to 60%).
The comparison of the ABR thresholds between groups was conducted by one-way analysis of variance (ANOVA) and P value of 0.05 or less was regarded as being significant.

[7] = test system: HEI-OC1 auditory hair cell line; type: cell-based; details: β-lapachone 30 minutes before treating with cisplatin, p<0.05
HMGB1 [8] = experiment: HMGB1 expression in inner ear by tissue staining; type: in vivo; details: 21-month-old mice, compared to control and CR groups
Description: In order to identify an effect of β-lapachone against the expression of HMGB1 which is known to be important for the damage and shape variation of mitochondria, a tissue staining was conducted.

[9] = test system: outer and inner hair cells of the inner ear; experiment: TUNEL identification of hair cell damage in inner ear; type: in vivo; details: 24-month-old mice, βL group vs control group
Excerpt: In order to identify damage of hair cells, the inner ears of the lab animals were enucleated and subject to terminal deoxynucleotidyl transferase-mediated dUTP nick end-labeling (TUNEL) from the top of cochlea to middle circular part thereof, followed by analyzing TUNEL positive cells using a fluorescence microscope.

[10] = test system: C57BL/6 mice (age-related hearing loss model); experiment: Auditory brainstem response (ABR) threshold in animal model with age-related presbycusis; type: in vivo; details: for ABR threshold: feed containing 0.06% β-lapachone; for recovery of ABR thresholds in comparison with the control group: p<0.05
Description: C57BL/6 mice which are well known as a age-related hearing loss model were used for this experiment. 12-month-old C57BL/6 mice were directly purchased from Central Lab. Animal Inc. (Seoul, Korea), and bred up to 24 months of age with measuring hearing loss every 3 months. All mice used in this experiment were bred in an axenic (germfree) animal facility maintaining constant temperature (22 to 26° C.) and humidity (55 to 60%).
All experiments were conducted for groups divided into a control group freely providing normal feed, caloric restriction (CR) group limiting dietary to 70%, and βL group providing feed containing 0.06% β-lapachone (compound 1).
In order to evaluate auditory brainstem response, all lab animals were intramuscularly injected with a mixture of xylazine (5 mg/kg) and ketamine for anesthesia and the variation of auditory brainstem response threshold was measured using a TDT system (Tucker-Davis Technologies, FL, USA) in a soundproof room.
An insertable ear tip (3.5 mm, Nicolet Biomedical, Inc.) was placed in the external auditory meatus, electrodes were placed at scalp vertex (active electrode), the mastoid region of the ear of interest (reference electrode) and the mastoid region of the opposite ear (ground electrode), and the threshold of ABS was measured by starting with 90 dB HL intensity and then sequentially decreasing the intensity by 10 dB at 4, 8, 16 and 32 kHz.
There was no arousal response and death due to respiratory depression during the ABR test. The comparison of the ABR thresholds between groups was conducted by one-way analysis of variance (ANOVA) and P value of 0.05 or less was regarded as being significant.

mitochondria = experiment: Shape variations of mitochondria by transmission electron microscope (TEM); type: in vivo; details: 24-month-old mice, compared to 2-month-old lab animals
Excerpt: Also, in order to identify inhibition of age-related mitochondria damage by β-lapachone, the shape variations of mitochondria were detected for three groups of 24-month-old lab animals using a transmission electron microscope (TEM).

[11] = HEI-OC1 cells treated with cisplatin

N.N.[Cl][Pt][Cl] [cisplatin, reference compound]
release amounts of HSP60 (HSP60 [1]; HEI-OC1 cells treated with cisplatin, p<0.05): significantly increased release amounts of HSP60 | location of HSP60 (HSP60 [2]; cells treated with cisplatin): HSP60 was almost expressed in cytoplasm | extracellular release of HMGB1 (HMGB1 [3]; [11]): extracellular release of excessive amounts of HMGB1 | release amounts of HSP60 (HSP60 [4]; mice treated with cisplatin, p<0.05): significantly increased release amounts of HSP60 | shape and arrangement of the outer and inner hair cells ([5]; treated with cisplatin): shape and arrangement of the outer and inner hair cells were changed | expression of inflammation mediators (TNF-α, IL-6, HSP60, TLR2, TLR4) [6, 11]: increased expression of inflammation-inducing cytokines such as TNF-α, IL-6 and HSP60 and inflammation mediators such as TLR2 and TLR4

CC1(C)CCC2=C(O1)c1ccccc1C(=O)C2=O [β-lapachone]
release amounts of HSP60 (HSP60 [1]; HEI-OC1 cells treated with both β-lapachone and cisplatin): decreased release amounts of HSP60 in a β-lapachone concentration-dependent manner | recovery of ABR thresholds as compared to the CDDP group (6-week-old C57BL/6 mice): statistically significant recovery at all regions | protection from apoptosis by cisplatin (cell viability, MTT) [7]: protected the apoptosis by cisplatin in a concentration-dependent manner | location of HSP60 (HSP60 [2]; cells treated with both β-lapachone and cisplatin): HSP60 was expressed in only mitochondria like the normal cells | expression of HMGB1 in the inner ear (HMGB1 [8]): significantly decreased expression of HMGB1 | extracellular release amounts of HMGB1 (HMGB1 [3]; HEI-OC1 cells treated with cisplatin and β-lapachone, p<0.05): the release amounts decreased in a β-lapachone concentration-dependent manner | age-related apoptosis (TUNEL positive cells) in inner ear [9]: significantly inhibited the age-related apoptosis in the whole inner ear | ABR threshold ([10]; 15-month-old mice, 4 kHz): 63.33±11.55 dB SPL | ABR threshold ([10]; 15-month-old mice, 8 kHz): 33.33±15.28 dB SPL | ABR threshold ([10]; 15-month-old mice, 16 kHz): 46.67±5.77 dB SPL | ABR threshold ([10]; 15-month-old mice, 32 kHz): 53.33±5.77 dB SPL | ABR threshold ([10]; 18-month-old mice, 4 kHz): 80±0 dB SPL | ABR threshold ([10]; 18-month-old mice, 8 kHz): 46.67±11.55 dB SPL | ABR threshold ([10]; 18-month-old mice, 16 kHz): 56.67±11.55 dB SPL | ABR threshold ([10]; 18-month-old mice, 32 kHz): 66.67±11.55 dB SPL | recovery of ABR thresholds in comparison with the control group ([10]; 21-month-old mice, 4, 8, 16 and 32 kHz): statistically significant recovery at regions except for 16 kHz | ABR threshold ([10]; 21-month-old mice, 4 kHz): 56.67±5.77 dB SPL | ABR threshold ([10]; 21-month-old mice, 8 kHz): 46.67±5.77 dB SPL | ABR threshold ([10]; 21-month-old mice, 16 kHz): 53.33±15.28 dB SPL | ABR threshold ([10]; 21-month-old mice, 32 kHz): 46.67±5.77 dB SPL | recovery of ABR thresholds in comparison with the control group ([10]; 24-month-old mice, 4, 8, 16 and 32 kHz): statistically significant recovery at all regions | recovery of ABR threshold in comparison with the control group ([10]; 24-month-old mice, at 8 to 32 kHz except for 4 kHz): no less than 30 dB SPL | ABR threshold ([10]; 24-month-old mice, 4 kHz): 73.33±5.77 dB SPL | ABR threshold ([10]; 24-month-old mice, 8 kHz): 43.33±5.77 dB SPL | ABR threshold ([10]; 24-month-old mice, 16 kHz): 53.33±5.77 dB SPL | ABR threshold ([10]; 24-month-old mice, 32 kHz): 53.33±11.55 dB SPL | release amounts of HSP60 (HSP60 [4]; mice treated with both β-lapachone and cisplatin): decreased release amounts of HSP60 in a β-lapachone concentration-dependent manner | number and shape of mitochondria (TEM) (mitochondria): number and shape of mitochondria similar to the 2-month-old lab animals | shape and arrangement of the auditory hair cells ([5]; treated with both β-lapachone and cisplatin): maintained the shape and arrangement of the auditory hair cells similar to the control group | expression of inflammation mediators by cisplatin (TNF-α, IL-6, HSP60, TLR2, TLR4) ([6]; HEI-OC1 cells, β-lapachone 30 minutes before cisplatin): inhibited by β-lapachone in a concentration-dependent manner
